The record followed here is ChEMBL document CHEMBL5260795, “Antifungal potential of marine natural products” (Eur J Med Chem, 2017).

In brackets after ≈: the same amount, converted by molar mass. Where a SMILES comes first, the peptide text is derived from it. [ ]: non-standard residue; d: D form. The star is where a group is joined. Tridecanoyl(3R-OH,11-Me) = CCC(C)CCCCCCC[C@@H](O)CC(=O)*; X2 = CCC(C)CC(C)CCCC[C@@H](O)CC(=O)*

Experiment [1] concerns Rhizoctonia solani. The experiment can be described thus: Antifungal activity against Rhizoctonia solani. The experiment is classed as functional.
Experiment [2] concerns Botrytis cinerea. The experiment can be described thus: Antifungal activity against Botrytis cinerea. Type of experiment: functional.
In experiment [3] the test system is Candida albicans. The experiment can be described thus: Antifungal activity against Candida albicans. Type of experiment: functional, organism-based.
In experiment [4] the test system is Saccharomyces cerevisiae. Description: Antifungal activity against Saccharomyces cerevisiae. The experiment is classed as functional.
Experiment [5] relates to Rhizoctonia solani. The experiment can be described thus: Antifungal activity against Rhizoctonia solani incubated for 48 hrs by standard broth dilution method. The experiment is classed as functional. In general terms: In broth dilution the organism is exposed to a series of concentrations in liquid medium.
In another experiment the test system is Phytophthora capsici. Description: Antifungal activity against Phytophthora capsici incubated for 48 hrs by standard broth dilution method. The experiment is classed as functional.
Experiment [6] deals with Botrytis cinerea. The experiment can be described thus: Antifungal activity against Botrytis cinerea incubated for 48 hrs by standard broth dilution method. Type of experiment: functional.
Experiment [7] has as its system Colletotrichum acutatum. The experiment can be described thus: Antifungal activity against Colletotrichum acutatum incubated for 48 hrs by standard broth dilution method. Type of experiment: functional.
The subject of experiment [8] is Candida albicans. Description: Antifungal activity against Candida albicans assessed as fungal growth inhibition. The experiment is classed as functional.
A short description of experiment [9]: Inhibition of Candida albicans CaCdr1p transporter assessed as reduction in rhodamine 6G efflux.
A short description of experiment [10]: Inhibition of Candida albicans CaCdr1p transporter ATPase activity.
For a further experiment, the system named is Aspergillus niger. The experiment can be described thus: Antimicrobial activity against Aspergillus niger incubated for 72 hrs by standard broth dilution method. The experiment is classed as functional.
In experiment [11] the test system is Botrytis cinerea. Description: Antimicrobial activity against Botrytis cinerea incubated for 72 hrs by standard broth dilution method. Type of experiment: functional.
Experiment [12] relates to Colletotrichum acutatum. The experiment can be described thus: Antimicrobial activity against Colletotrichum acutatum incubated for 72 hrs by standard broth dilution method. The experiment is classed as functional.
For experiment [13], the system named is Rhizoctonia solani. The experiment can be described thus: Antimicrobial activity against Rhizoctonia solani incubated for 72 hrs by standard broth dilution method. Type of experiment: functional.
Experiment [14] has as its system Candida albicans. Description: Antimicrobial activity against Candida albicans incubated for 72 hrs by standard broth dilution method. The experiment is classed as functional.
Experiment [15] concerns Saccharomyces cerevisiae. Description: Antimicrobial activity against Saccharomyces cerevisiae incubated for 72 hrs by standard broth dilution method. The experiment is classed as functional.
The test system of experiment [16] is Candida albicans. Description: Antifungal activity against wild type Candida albicans. The experiment is classed as functional, organism-based.

In the case of `CCC(C)CCCCCCC[C@@H](O)CC(=O)N[C@@H](CCC(=O)O)C(=O)N[C@@H](CC(C)C)C(=O)N[C@@H](CC(C)C)C(=O)N[C@@H](C(=O)N[C@@H](CC(=O)O)C(=O)N[C@@H](CC(C)C)C(=O)N[C@@H](CC(C)C)C(=O)O)C(C)C` (stereo partly drawn) ({Tridecanoyl(3R-OH,11-Me)}-ELL[dV]DLL-OH), the minimum inhibitory concentration (MIC) in the experiment with Rhizoctonia solani [1] and against Botrytis cinerea [2] was 4 µg/mL (≈ 3.84 µM) in each case. `C/C=C(\NC(=O)[C@@H](NC(=O)[C@H](O)[C@H](O)[C@H](CCCNC(=N)N)NC(=O)[C@@H](C)NC(=O)[C@H](C)[C@H](O)[C@H](C)CC(C)C)[C@@H](C)[C@@H](C)C(N)=O)C(=O)N[C@@H](C(=O)N[C@H](CCCNC(=N)N)C(=O)O)[C@@H](C)O` came in with an MIC in the experiment on Candida albicans [3] of 0.1 µg/mL (≈ 0.103 µM). On the same count and under the same terms, as for `C[C@@H]1NC(=O)[C@@H](Cc2ccccc2)NC(=O)[C@@H](CO)NC(=O)c2ccccc2NC(=O)/C(=C\c2c[nH]c3ccccc23)NC(=O)[C@H]([C@@H](C)O)NC1=O`, the figure is 2.48 µg/mL (≈ 3.49 µM). For `CC1CCC/C=C/[C@@H]2O[C@@H](C/C=C\C=C\[C@H](O[C@@H]3O[C@H](CO)[C@@H](O)[C@H](O)[C@H]3O)C/C=C/C=C\C(=O)O1)C[C@@H](O)[C@H]2O` (some centres undefined), 0.22 µg/mL (≈ 0.379 µM) was the least that counted as inhibitory with Saccharomyces cerevisiae [4] (MIC). `CCC(C)CCCCCCC[C@@H](O)CC(=O)N[C@@H](CC(C)C)C(=O)N[C@@H](CCC(=O)O)C(=O)N[C@@H](CC(C)C)C(=O)N[C@@H](CC(C)C)C(=O)O` (stereo partly drawn) ({Tridecanoyl(3R-OH,11-Me)}-LELL-OH): the MIC against Rhizoctonia solani [5], with Phytophthora capsici, in the experiment with Botrytis cinerea [6] and with Colletotrichum acutatum [7] was 0.01 µg/mL (≈ 0.014 µM) throughout. Turning to `CCCC[C@H](CC)C1NC(=O)c2ccccc2N1` (some centres undefined), the MIC in the experiment with Candida albicans [8] turned out to be 0.62 µg/mL (≈ 2.52 µM).

Take `CCC[C@@H]1CC(=O)N[C@@H](CC(C)C)C(=O)N[C@H](Cc2ccccc2)C(=O)N[C@@H](CC(C)C)C(=O)N[C@@H](Cc2ccccc2)C(=O)O1`: the IC50 in [9] turned out to be 2.29 µg/mL (≈ 3.61 µM); in [10], 0.31 µg/mL (≈ 0.488 µM). For the molecule `CCC/C=C\c1ccccc1/C=C/C(=O)N[C@H]1C(=O)N(C)/C(=C/c2ccc(O)cc2)C(=O)N[C@@H](CC(C)C)C(=O)N[C@H](Cc2ccccc2)C(=O)N[C@@H]([C@H](C)O)C(=O)N[C@@H](CC(N)=O)C(=O)N[C@@H](CO)C(=O)O[C@H](C)[C@@H](NC(=O)C/C=C2/C=CNC[C@H]2/C=C\CCC)C(=O)N(C)/C(=C/c2ccc(O)cc2)C(=O)N[C@@H](CC(C)C)C(=O)N[C@H](Cc2ccccc2)C(=O)N[C@@H]([C@H](C)O)C(=O)N[C@@H](CC(N)=O)C(=O)N[C@@H](CO)C(=O)O[C@@H]1C`, the midpoint of inhibition with Candida albicans [3], the IC50, lay at 4.14 µg/mL (≈ 1.99 µM). As to `CC(C)C[C@H](NC(=O)[C@@H](CCCNC(=N)N)NC(=O)[C@H](NC(=O)[C@H](NC(=O)[C@@H](NC(=O)[C@H](O)[C@H](O)[C@H](CCCNC(=N)N)NC(=O)[C@@H](C)NC(=O)[C@H](C)[C@H](O)[C@H](C)CC(C)C)[C@@H](C)[C@@H](C)C(N)=O)[C@@H](C)O)[C@@H](C)O)C(=O)N(C)[C@@H](CCC(N)=O)C(=O)O`, the MIC in the experiment with Candida albicans [3] stood at 0.1 µg/mL (≈ 0.0803 µM).

Consider `CO[C@H]1/C=C/C=C/CCC[C@@H](C)OC(=O)/C=C\C=C\C[C@H](O[C@@H]2O[C@@H](CO)[C@@H](O)[C@H](O)[C@H]2O)/C=C/C=C\C[C@H](O)C1`, for which the MIC against Aspergillus niger, in the experiment with Botrytis cinerea [11], against Colletotrichum acutatum [12], in the experiment on Rhizoctonia solani [13], against Candida albicans [14] and in the experiment on Saccharomyces cerevisiae [15] was 0.02 µg/mL (≈ 0.0346 µM) throughout. Consider `CCCCCCCCCCCC(=O)N(CCO)CCO`, for which 0.22 µg/mL (≈ 0.765 µM) was the least that counted as inhibitory in the experiment with Saccharomyces cerevisiae [4] (MIC). `C/C=C(\NC(=O)[C@@H](NC(=O)[C@H](O)[C@H](O)[C@H](CCCNC(=N)N)NC(=O)[C@@H](C)NC(=O)[C@H](C)[C@H](O)[C@H](C)CC(C)C)[C@@H](C)[C@@H](C)C(N)=O)C(=O)N[C@@H](C(=O)N[C@H](CCCNC(=N)N)C(=O)N[C@@H](CC(C)C)C(=O)N(C)[C@@H](CCC(N)=O)C(=O)N[C@@H](C(=O)N(C)[C@@H](C)C(=O)O)[C@H](OC)c1ccc(O)cc1)[C@@H](C)O` gave an MIC with Candida albicans [3] of 0.1 µg/mL (≈ 0.0664 µM). On to `CCCC[C@H](CC)c1nc2ccccc2c(=O)[nH]1`, for which, in the experiment with Candida albicans [8], the MIC is 0.62 µg/mL (≈ 2.54 µM). In turn, `C/C(Cl)=C/C=C/C=C/C=C/C=C/C(O)=C1\C(=O)C(CC(N)=O)N([C@@H]2OC[C@@H](O)[C@H](O)[C@H]2O[C@H]2OC[C@H](O[C@H]3O[C@@H](C)[C@H](O)[C@@H]3O)[C@H](O)[C@H]2O)C1=O` (some centres undefined) gave an MIC in the experiment on Candida albicans [16] of 1.95 µg/mL (≈ 2.62 µM). In the experiment with Candida albicans [3], `CC(C)[C@@H](C)[C@@H]1O[C@@H]1[C@@H](C)[C@H]1[C@@H](O)C[C@]2(O)C3=CC=C4C[C@@H](O)CC[C@]4(C)C3[C@H](O)C(=O)[C@]12C` (some centres undefined) came in with an MIC of 1.56 µg/mL (≈ 3.29 µM). With `CCC(C)CC(C)CCCC[C@@H](O)CC(=O)N[C@@H](CC(C)C)C(=O)N[C@@H](CCC(=O)O)C(=O)N[C@@H](CC(C)C)C(=O)N[C@@H](CC(C)C)C(=O)O` (some centres undefined) (X2-LELL-OH), the MIC against Rhizoctonia solani [5], against Phytophthora capsici, against Botrytis cinerea [6] and in the experiment on Colletotrichum acutatum [7] was 0.01 µg/mL (≈ 0.014 µM) in each case.

As usually defined, the MIC is the least concentration at which growth counts as inhibited. One may read the IC50 as the concentration that inhibits the measured activity by half.
